Laboratory results: US7638540B2, “Benzofuran compound and medicinal composition containing the same” (The New Industry Research Organization, priority 2003, dated 2009)

melting point | Structure (SMILES)
170.7 to 172 °C | COc1ccc(/C=C/C(=O)c2oc3ccc(Br)cc3c2NC(=O)CCCl)cc1 [Example 195, (E)-N-{5-bromo-2-[3-(4-methoxyphenyl)-acryloyl]benzofuran-3-yl}-3-chloropropionamide]
126.9 to 129.4 °C | COc1ccc(CCNC(=O)/C=C(\C)c2ccc3oc(C(=O)c4ccccc4)cc3c2)cc1OC [Example 24, (E)-3-(2-benzoylbenzofuran-5-yl)-N-[2-(3,4-dimethoxyphenyl)ethyl]-2-butenamide]
248 °C | CN(C)/C=C/C(=O)c1oc2ccc(Br)cc2c1NC(=O)/C=C/c1ccccc1 [Example 176, (E,E)-N-[5-bromo-2-(3-dimethylaminoacryloyl)-benzofuran-3-yl]-3-phenylacrylamide]
234.5 to 241.5 °C | COc1cccc(NC(=O)c2oc3ccc(Br)cc3c2NC(=O)/C(C#N)=C(/C)O)c1 [Example 188, (Z)-5-bromo-3-(2-cyano-3-hydroxy-2-butenoylamino)benzofurane-2-carboxylic acid (3-methoxyphenyl)amide]
179 to 185 °C | N#C/C=C/C=C(\Cl)c1cc2cc(Br)ccc2o1 [Example 154, (2E,4Z)-5-(5-bromobenzofuran-2-yl)-5-chloropenta-2,4-dienenitrile]
116 to 117.5 °C | CCN(CC)C(=O)/C=C(\C)c1cc(Cl)cc2cc(C(C)=O)oc12 [Example 170, (E)-3-(2-acetyl-5-chloro-benzofuran-7-yl)-2-butenoic acid diethylamide]
216.4 to 218.4 °C | CCN(CC)C(=O)/C=C(\C)c1ccc2oc(C(=O)c3ccc(C#N)cc3)c(N)c2c1 [Example 22, (E)-3-[3-amino-2-(4-cyanobenzoyl)benzofuran-5-yl]-N,N-diethyl-2-butenamide]
133.7 to 135.4 °C | CCOC(=O)C(CSCc1ccccc1)NC(=O)/C=C/C=C(\Cl)c1cc2cc(Br)ccc2o1 (stereo not drawn) [Example 64, Ethyl (2E,4Z)-3-benzylsulfanyl-2-[5-(5-bromobenzofuran-2-yl)-5-chloropenta-2,4-dienoylamino]propionate]
80.6 to 82.1 °C | CCN(CC)C(=O)/C=C(\C)c1ccc(OCCCCl)c2oc(C(C)=O)cc12 [Example 137, (E)-3-[2-acetyl-7-(3-chloropropoxy)benzofuran-4-yl]-2-butenoic acid diethylamide]
98 to 100 °C | C/C=C/C(=O)NC(C)c1cc2ccccc2o1 (stereo not drawn) [Example 192, (E)-2-butenoic acid (1-(benzofuran-2-yl)ethyl)amide]
113.9 to 117.6 °C | CCOC(=O)/C=C/C=C(\Cl)c1cc2cccc(OC)c2o1 [Example 62, Ethyl (2E,4Z)-5-chloro-5-(7-methoxybenzofuran-2-yl)penta-2,4-dienoate]
265 °C | C/C(O)=C(\C#N)C(=O)Nc1c(C(N)=O)oc2ccccc12 [Example 101, (Z)-3-(2-cyano-3-hydroxy-2-butenoylamino)benzofurane-2-carboxamide]
147.5 to 150.1 °C | CCOC(=O)c1oc2ccccc2c1NC(=O)/C(C#N)=C(/C)O [Example 107, Ethyl (Z)-3-(2-cyano-3-hydroxy-2-butenoylamino)benzofurane-2-carboxylate]
174.2 to 176.5 °C | COc1ccc(/C=C/C(=O)c2oc3ccc(Br)cc3c2NC(=O)CNCc2ccccc2)cc1 [Example 196, (E)-2-benzylamino-N-{5-bromo-2-[3-(4-methoxyphenyl)acryloyl]benzofuran-3-yl}acetamide]
109 to 113 °C | CCOC(=O)/C=C/C=C(\Cl)c1cc2cc(Br)ccc2o1 [Example 159, Ethyl (2E,4Z)-5-(5-bromobenzofuran-2-yl)-5-chloropenta-2,4-dienoate]
115.5 to 117 °C | C/C(=C\C(=O)N1CCOCC1)c1ccc2oc(C(=O)c3ccccc3)cc2c1 [Example 25, (E)-3-(2-benzoylbenzofuran-5-yl)-1-morpholino-2-buten-1-one]
99.8 to 104 °C | Cc1oc2ccc(Br)cc2c1/C(Cl)=C/C=O [Example 151, (Z)-3-(5-bromo-2-methylbenzofuran-3-yl)-3-chloropropenal]
171.2 to 171.8 °C | O=C(/C=C/c1ccccc1)Nc1c(C(=O)c2ccc(Cl)cc2)oc2ccc(Br)cc12 [Example 113, (E)-N-[5-bromo-2-(4-chlorobenzoyl)benzofuran-3-yl]-3-phenylacrylamide]
256.4 to 262.1 °C | CC(=O)c1oc2ccc(/C(C)=C/C(=O)N3CCOCC3)cc2c1N [Example 23, (E)-3-(2-acetyl-3-aminobenzofuran-5-yl)-1-morpholino-2-buten-1-one]
182.5 to 184.7 °C | COc1ccc(/C=C/C(=O)Nc2c(C(C)=O)oc3ccc(Br)cc23)cc1 [Example 178, (E)-N-(2-acetyl-5-bromobenzofuran-3-yl)-3-(4-methoxyphenyl)acrylamide]

Further lines, the molecule ahead of its results:

Structure (SMILES) | melting point
C/C(=C\C(=O)N1CCOCC1)c1ccc2oc(C(=O)c3ccc(C#N)cc3)c(NC(=O)c3cnoc3C)c2c1 [Example 81, (E)-N-[2-(4-cyanobenzoyl)-5-(1-methyl-3-morpholino-3-oxo-1-propenyl)benzofuran-3-yl]-5-methylisoxazole-4-carboxamide] | 229.4 to 232.5 °C
Cc1nc(-c2oc3c(Cl)cccc3c2-c2ccc(Cl)cc2)cs1 [Example 214, 4-[7-chloro-3-(4-chlorophenyl)benzofuran-2-yl]-2-methylthiazole] | 156.4 to 158.4 °C
C/C(O)=C(\C#N)C(=O)NC(C)c1cc2cccc(OCCCC(=O)O)c2o1 (stereo not drawn) [Example 126, (Z)-4-{2-[1-(2-cyano-3-hydroxy-2-butenoylamino)ethyl]benzofuran-7-yloxy}butyric acid] | 147.9 to 148.6 °C
CC(=O)c1oc2ccccc2c1NC(=O)c1cnoc1C [Example 69, N-(2-acetylbenzofuran-3-yl)-5-methylisoxazole-4-carboxamide] | 174 to 177 °C
CCOC(=O)c1oc2ccc(/C(C)=C/C(=O)N(CC)CC)cc2c1NC(=O)c1cnoc1C [Example 91, Ethyl (E)-5-(2-diethylcarbamoyl-1-methylvinyl)-3-[(5-methylisoxazole-4-carbonyl)amino]benzofurane-2-carboxylate] | 138.9 to 141.2 °C
COc1ccc(NC(=O)/C=C(/C)c2cc3cccc(OC(c4ccccc4)c4ccccc4)c3o2)cc1OC [Example 43, (Z)-3-(7-benzhydryloxybenzofuran-2-yl)-N-(3,4-dimethoxyphenyl)-2-butenamide] | 93.9 to 94.5 °C
COc1ccc(NC(=O)/C=C(\C)c2cc3cccc(OC(c4ccccc4)c4ccccc4)c3o2)cc1 [Example 41, (E)-3-(7-benzhydryloxybenzofuran-2-yl)-N-(4-methoxyphenyl)-2-butenamide] | 191.8 to 193.6 °C
COc1ccc(CCNC(=O)/C=C(\C)c2cc3cccc(OC(C)c4ccccc4)c3o2)cc1OC (stereo not drawn) [Example 164, (E)-3-[7-(1-phenylethoxy)benzofuran-2-yl]-2-butenoic acid [2-(3,4-dimethoxyphenyl)ethyl]amide] | 109 to 113 °C
COc1ccc(NC(=O)c2cnoc2C)c2cc(C(C)=O)oc12 [Example 111, N-(2-acetyl-7-methoxybenzofuran-4-yl)-5-methylisoxazole-4-carboxamide] | 201.8 to 205.9 °C
COc1ccc(CCNC(=O)/C=C(\C)c2ccc3oc(C(C)=O)c(NC(=O)/C(C#N)=C(/C)O)c3c2)cc1OC [Example 103, N-(2-acetyl-5-{(E)-2-[2-(3,4-dimethoxyphenyl)ethylcarbamoyl]-1-methylvinyl}benzofuran-3-yl)-2-cyano-3-hydroxy-(Z)-2-butenamide] | 176.7 to 179.7 °C
CCNS(=O)(=O)c1ccc(OCCCC(=O)OCC)c2oc(C(C)NC(=O)c3cnoc3C)cc12 (stereo not drawn) [Example 125, Ethyl 4-(4-ethylsulfamoyl-2-{1-[(5-methylisoxazole-4-carbonyl)amino]ethyl}benzofuran-7-yloxy)butyrate] | 88.1 to 90 °C
CCN(CC)C(=O)/C=C(\C)c1ccc(OCCCSc2ccc(Cl)cc2)c2oc(C(C)=O)cc12 [Example 139, (E)-3-{2-acetyl-7-(3-(4-chlorophenylsulfanyl)propoxy)benzofuran-4-yl}-2-butenoic acid diethylamide] | 110.5 to 113.5 °C
COc1ccc2oc(-c3nc(N=CN(C)C)sc3/C=N/CCO)c(-c3ccc(Cl)cc3)c2c1 [Example 223, N′-{4-[3-(4-chlorophenyl)-5-methoxybenzofuran-2-yl]-5-[(2-hydroxyethylimino)methyl]thiazol-2-yl}-N,N-dimethylformamidine] | 167.8 to 169.2 °C
COc1ccc(NC(=O)/C=C(\C)c2cc3cccc(OC(c4ccccc4)c4ccccc4)c3o2)cc1OC [Example 45, (E)-3-(7-benzhydryloxybenzofuran-2-yl)-N-(3,4-dimethoxyphenyl)-2-butenamide] | 93.9 to 94.5 °C
CCOC(=O)c1oc2ccccc2c1NC(=O)c1cnoc1C [Example 68, Ethyl 3-[(5-methylisoxazole-4-carbonyl)amino]benzofurane-2-carboxylate] | 166 to 168.2 °C
COc1cccc2c(NC(=O)c3cnoc3C)c(C(=O)c3ccc(Cl)cc3)oc12 [Example 82, N-[2-(4-chlorobenzoyl)-7-methoxybenzofuran-3-yl]-5-methylisoxazole-4-carboxamide] | 237.4 to 239.5 °C
COc1cccc2c(NC(=O)c3cnoc3C)c(C(C)=O)oc12 [Example 80, N-(2-acetyl-7-methoxybenzofuran-3-yl)-5-methylisoxazole-4-carboxamide] | 181 to 181.7 °C
COc1cccc2c(NC(=O)/C=C/c3ccccc3)c(C(=O)c3ccc(Br)cc3)oc12 [Example 179, (E)-N-[2-(4-bromobenzoyl)-7-methoxybenzofuran-3-yl]-3-phenylacrylamide] | 236.5 to 237.8 °C
CCCCc1oc2ccccc2c1/C(C)=C/C(=O)NCCc1ccc(OC)c(OC)c1 [Example 157, (E)-3-(2-butylbenzofuran-3-yl)-2-butenoic acid [2-(3,4-dimethoxyphenyl)ethyl]amide] | 95 to 99 °C
